According to US20220015362A1, “COMPOSITIONS COMPRISING HALAUXIFEN AND OTHER HERBICIDES AND METHODS THEREOF” (DOW AGROSCIENCES LLC, priority 2018, published 2022):

Test system: ERISU (Conyza sumatrensis, Sumatran fleabane)
Test: Greenhouse post-emergence foliar weed control trial, visual injury score 0-100 percent
Type: in vivo
Conditions: 400 gai/ha
Description: Results in Examples are greenhouse trial results.
Seeds or nutlets of the desired test plant species were planted in a soil matrix prepared by mixing a loam or sandy loam soil (e.g., 28.6 percent silt, 18.8 percent clay, and 52.6 percent sand, with a pH of about 5.8 and an organic matter content of about 1.8 percent) and calcareous grit in an 80 to 20 ratio. The soil matrix was contained in plastic pots with a volume of 1 quart and a surface area of 83.6 cm2. When required to ensure good germination and healthy plants, a fungicide treatment and/or other chemical or physical treatment was applied. The plants were grown for 8-22 days in a greenhouse with an approximate 14 h photoperiod which was maintained at about 29° C. during the day and 26° C. during the night. Nutrients (Peters Excel® 15-5-155-Ca 2-Mg and iron chelate) were applied in the irrigation solution as needed and water was added on a regular basis. Supplemental lighting was provided with overhead metal halide 1000-Watt lamps as necessary. The plants were employed for testing when they reached the first through fourth true leaf stage.
Treatments comprised of the acid or esters of halauxifen-methyl (methyl 4-amino-3-chloro-6-(4-chloro-2-fluoro-3-methoxyphenyl)picolinate), each formulated as an SC (suspension concentrate), and various herbicidal components alone and in combination. A form of the compound of Formula I were applied on an acid equivalent basis.
Treatment requirements were calculated based upon the rates being tested, the concentration of active ingredient or acid equivalent in the formulation, and a 12 mL application volume at a rate of 187 L/ha.
For treatments comprised of formulated and technical compounds, weighed amounts of the technical materials were placed individually in 25 mL glass vials and dissolved in a volume of 97:3 v/v acetone/DMSO to obtain 12× stock solutions, and measured amounts of the formulated compounds were placed individually in 25 mL glass vials and diluted in a volume of 1.5% (v/v) crop oil concentrate or water to obtain 12× stock solutions. […] As required, additional water and/or 97:3 v/v acetone/DMSO was added to individual application solutions so that the final acetone and DMSO concentrations of the application solutions being compared were 8.1% and 0.25%, respectively.
All stock solutions and applications solutions were visually inspected for compound compatibility prior to application. Spray solutions were applied to the plant material with an overhead Mandel track sprayer equipped with an 8002E nozzle calibrated to deliver 187 L/ha over an application area of 0.503 m2 at a spray height of 18 to 20 inches (46 to 50 cm) above average plant canopy height. Control plants were sprayed in the same manner with the solvent blank.
The treated plants and control plants were placed in a greenhouse as described above and watered by sub-irrigation to prevent wash-off of the test compounds. […]
Table 1 illustrates weed control for foliar applications of compositions comprising halauxifen-methyl+2,4-D-dimethylammonium (2,4-D-DMA)+paraquat on various broadleaf weeds. […] The compositions disclosed herein can be used in burndown and fallow crop applications or in herbicide tolerant crops. These compositions can be used for broad-spectrum control of broadleaf weeds including, but not limited to, ALS, auxinic, HPPD, PPO, glufosinate and glyphosate resistant broadleaf weeds. The compositions disclosed herein can have utility in AAD1 and AAD12 monocot and dicot crops whereby there is crop tolerance to all 3 modes of action, providing growers with a solution to control susceptible and resistant broadleaf weeds, as well as to delay the development of resistance by the use of 3 modes of action product. The compositions disclosed herein can be used in non-crop and R&P/IVM situations, post directed in perennial crops, and potentially across many crops where there is tolerance to all 3 modes of action.

C[n+]1ccc(-c2cc[n+](C)cc2)cc1 [paraquat, 1-methyl-4-(1-methylpyridin-1-ium-4-yl)pyridin-1-ium]
Chem 2 Actual Mean % Weed Control (Trial 1, 17DAA): 32.50% | Chem 2 Actual Mean % Weed Control (Trial 1, 28DAA): 52.50% | Chem 2 Actual Mean % Weed Control (Trial 1, 43DAA): 60.00% | Chem 2 Actual Mean % Weed Control (Trial 2, 17DAA): 52.50% | Chem 2 Actual Mean % Weed Control (Trial 2, 28DAA): 55.00% | Chem 2 Actual Mean % Weed Control (Trial 2, 43DAA): 65.00%
